For orientation: IC50 means the midpoint of a concentration-inhibition curve. Read a low IC50 as higher potency.

Substitutions are numbered along the chain they refer to. A value given as a limit tells only on which side of the number the result lay.

Common to all, as to type: cell-based
For assay [1], the target named is T1, AR protein (Homo sapiens, UniProt P10275).
T1 construct: host or cells: VCaP
T1 sequence (P10275 1-920): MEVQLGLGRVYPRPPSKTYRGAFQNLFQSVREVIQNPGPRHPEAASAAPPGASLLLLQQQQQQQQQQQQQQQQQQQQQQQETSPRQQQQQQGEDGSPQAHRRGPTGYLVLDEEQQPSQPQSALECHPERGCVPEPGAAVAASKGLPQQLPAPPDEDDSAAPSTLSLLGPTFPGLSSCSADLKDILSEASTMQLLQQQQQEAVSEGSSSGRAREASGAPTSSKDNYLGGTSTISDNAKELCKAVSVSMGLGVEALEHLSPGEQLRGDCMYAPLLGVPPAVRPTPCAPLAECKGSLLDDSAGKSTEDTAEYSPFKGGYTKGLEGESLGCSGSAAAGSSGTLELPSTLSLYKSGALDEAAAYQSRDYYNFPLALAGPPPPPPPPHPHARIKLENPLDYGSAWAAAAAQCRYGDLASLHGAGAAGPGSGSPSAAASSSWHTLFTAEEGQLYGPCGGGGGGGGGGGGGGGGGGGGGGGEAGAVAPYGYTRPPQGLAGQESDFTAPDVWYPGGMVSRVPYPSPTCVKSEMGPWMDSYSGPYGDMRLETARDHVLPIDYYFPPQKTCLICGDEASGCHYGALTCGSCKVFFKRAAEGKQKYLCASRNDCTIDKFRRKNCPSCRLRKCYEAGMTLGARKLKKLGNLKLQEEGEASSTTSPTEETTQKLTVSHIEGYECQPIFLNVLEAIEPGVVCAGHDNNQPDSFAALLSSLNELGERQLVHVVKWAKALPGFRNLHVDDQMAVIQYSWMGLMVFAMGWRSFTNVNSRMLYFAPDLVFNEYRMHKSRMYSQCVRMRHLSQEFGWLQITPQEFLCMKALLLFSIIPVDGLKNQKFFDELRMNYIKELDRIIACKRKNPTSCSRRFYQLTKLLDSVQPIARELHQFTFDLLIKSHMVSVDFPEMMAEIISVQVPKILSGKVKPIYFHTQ
Briefly: AR protein degradation in VCaP cells (Western blot). The note with it: 8h. As to the method:
The degradation activity of the compounds disclosed in the present invention on AR protein in VCaP cells (cell source: ATCC)
The AR-positive human prostate cancer cells VCaP cultured in DMEM (GiBco catalog number 11995-065) containing 10% FBS (Hyclone catalog number SH30406.05) was inoculated in a six-well microplate (Thermo catalog number 140675) at a concentration of 3×10^5 cells/ well. After being cultured overnight in a carbon dioxide incubator (ESCO), the prepared compound of the present invention and the positive control sample ARV-766 (Annaiji) solution of different concentrations were added at a volume of 1 µL/well to make the final concentrations of the compound and the positive control sample reach 5nM and 0.5nM, respectively. At the same time, the corresponding solvent control was set and cultured for 8h. After 8h of culture, the culture medium was removed, and the cells were washed with PBS. RIPA lysis buffer containing 1% Protease Inhibitor Cocktail was added. After lysis and centrifugation, a total protein extract was obtained, and the protein concentration in the extract was detected by BCA method. Protein electrophoresis was performed using SDS-PAGE, and then the protein was transferred to a PVDF (Millipore Sigma catalog number PSRP010R5) membrane at a constant voltage of 100V for 60min. The PVDF membrane was placed in a 5% milk powder 1×TBST solution and blocked at room temperature for 1h. The primary antibody solution (Anti-Androgen receptor, Cell Signaling Technology catalog number: 5153S; 1:2000 dilution) was prepared and was incubated at 4°C overnight. The primary antibody solution was discarded and the PVDF membrane was washed with 1×TBST for 5 minutes each time, for three times. The secondary antibody solution (Thermo catalog number SA5-35571; 1:7500 dilution) was prepared and was incubated at room temperature for 1 hour. The secondary antibody solution was discarded and the PVDF membrane was washed with 1×TBST for 5 minutes each time, for three times. A dual-color infrared laser imaging system (Licor catalog number Odyssey CLX) was used for Western membrane imaging. Image Studio software was used to analyze the grayscale of the bands. GAPDH protein bands were also detected for each sample as the reference. The AR protein degradation rate of the compound and the positive control sample was calculated based on the grayscale of the protein bands.
Table 7 Degradation rate of AR protein in VCaP cells by the compounds disclosed in the present invention
In general terms: A western blot detects proteins with antibodies after separation by electrophoresis.

The subject of assay [2] is LNCaP cells. Description: Inhibition of LNCaP cell proliferation (WST-8). The note with it: Homo sapiens, LNCaP FGC cells, 96 hours. As to the method: The inhibitory activity of compounds disclosed in the present invention on LNCaP cell proliferation
The cells were cultured overnight in a 37°C, 5% CO2 cell incubator. […] The final concentration of the compound was 9 concentration points of 5-fold serial dilution starting from 10 µM. […] The cells were cultured in a cell culture incubator at 37°C and 5% CO2 for 96 hours. On the sixth day, the 96-well cell culture plate was removed, and 1/10 volume of WST-8 (Beytime, C0040) reagent was added to each well. The absorbance at 450 nm was detected using a microplate reader (TECAN, F50).
Background: Tetrazolium dyes change colour on reduction, which living cells bring about.

Assay [3] has as its system VCaP cells. Briefly: Inhibition of VCaP cell proliferation (WST-8). The note with it: Homo sapiens, 168 hours. As to the method: On the first day of the experiment, VCaP cells were seeded at a density of 15,000 cells/well in a 96-well plate using DMEM medium containing 10% fetal bovine serum, with 100µL of cell suspension per well, and cultured overnight in a cell incubator at 37°C and 5% CO2. On the second day, 100µL of the compound of the present invention and the positive control ARV-110 (source: Anaiji) prepared in culture medium at different concentrations were added to each well. The final concentration of the compound was 9 concentration points of 5-fold serial dilution starting from 10 µM. […] On the ninth day, the 96-well cell culture plate was removed and 1/10 volume of WST-8 (Beytime, C0040) reagent was added to each well. The absorbance at 450nm was measured using a microplate reader (TECAN, F50).

Assay [4] concerns the target T2, AR protein (Homo sapiens, UniProt P10275, T878A).
T2 construct: host or cells: LNCaP FGC
T2 sequence (P10275 1-920 T878A): T1 sequence (P10275 1-920) with T878A
Description: AR protein degradation in LNCaP cells (Western blot). The note with it: 8 hours. In short, it runs like this: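 LNCaP cells exposed to compound or solvent control for 8 h, lysed in RIPA, protein normalized by BCA. AR detected by SDS-PAGE/Western blot with infrared imaging; band grayscale normalized to GAPDH to calculate AR degradation rate.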

For the compound `COc1cc(O[C@H]2C(C)(C)[C@H](NC(=O)c3ccc(N4CCC(CN5CCN6c7ccc(C(=O)N[C@H]8CCC(=O)NC8=O)cc7OC[C@H]6C5)CC4)cc3)C2(C)C)ccc1C#N` [A-P-74, (R)-3-((1-(4-(((1R,3R)-3-(4-cyano-3-methoxyphenoxy)-2,2,4,4-tetramethylcyclobutyl)carbamoyl)phenyl)piperidin-4-yl)methyl)-N-((S)-2,6-dioxopiperidin-3-yl)-1,2,3,4,4a,5-hexahydrobenzo[b]pyrazi no[1,2-d][1,4]oxazine-8-carboxamide], the entries for the “Degradation rate of AR protein in VCaP cells” value in assay [1] (0.5 nM) and in assay [1] (5 nM) were 2% and 70%, respectively. Moreover, the values for the IC50 in assay [2] and in assay [3] were 0.5 µM and 2.16 µM, respectively.
Turning to `COc1cc(O[C@H]2C(C)(C)[C@H](NC(=O)c3ccc(N4CCC(CN5CCC6(CC5)COc5c6ccc(C(=O)N[C@H]6CCC(=O)NC6=O)c5OC)CC4)cc3)C2(C)C)ccc1C#N` [A-P-78, 1'-((1-(4-(((1r,3r)-3-(4-cyano-3-methoxyphenoxy)-2,2,4,4-tetramethylcyclobutyl)carbamoyl)phenyl)piperidin-4-yl)methyl)-N-((S)-2,6-dioxopiperidin-3-yl)-7-methoxy-2H-spiro[benzofuran-3,4'-piperidine]-6-carboxamide], the “Degradation of AR protein in LNCaP cells, 10 nM (%)” value in assay [4] (10 nM) is -2%. For the same compound, the “Degradation of AR protein in LNCaP cells, 100 nM (%)” value in assay [4] (100 nM) turned out to be 14%. The figures for the IC50 in assay [2] and in assay [3] were 50.7 µM and greater than 10 µM, respectively.
On to `COc1cc2c(cc1C(=O)N[C@H]1CCC(=O)NC1=O)OCC21CCN(CC2CCN(c3ccc(N4CCC5(CC4)C[C@H](C)N(c4ccc(C#N)c(Cl)c4)C5)cc3)CC2)CC1` [A-P-80, 1'-((1-(4-((S)-2-(3-chloro-4-cyanophenyl)-3-methyl-2,8-diazaspiro[4.5]decan-8-yl)phenyl)piperidin-4-yl)methyl)-N-((S)-2,6-dioxopiperidin-3-yl)-5-methoxy-2H-spiro[benzofuran-3,4'-piperidin]-6-carboxamide], for which, in assay [4] (10 nM), the percent AR protein degradation at a fixed concentration at 0.01 µM is 22%. For the same compound, the percent AR protein degradation at a fixed concentration at 0.1 µM in assay [4] (100 nM) was found to be 73%. Further, the IC50 in assay [2] turned out to be 1.94 µM; in assay [3] it was 0.051 µM.
For `COc1cc2c(cc1C(=O)N[C@H]1CCC(=O)NC1=O)C1(CCN(CC3CCN(c4ccc(N5CCC6(CC5)C[C@H](C)N(c5ccc(C#N)c(Cl)c5)C6)cc4)CC3)CC1)CO2` [A-P-81, 1'-((1-(4-((S)-2-(3-chloro-4-cyanophenyl)-3-methyl-2,8-diazaspiro[4.5]decan-8-yl)phenyl)piperidin-4-yl)methyl)-N-((S)-2,6-dioxopiperidin-3-yl)-6-methoxy-2H-spiro[benzofuran-3,4'-piperidin]-5-carboxamide], in that order: -15%, 30%, 14.5 µM and 1.79 µM.
Consider `COc1cc2c(cc1C(=O)N[C@H]1CCC(=O)NC1=O)C1(CCN(CC3CCN(C(=O)c4ccc(N5CCC6(CC5)C[C@H](C)N(c5ccc(C#N)c(Cl)c5)C6)cc4)CC3)CC1)CO2` [A-P-82, 1'-((1-(4-((S)-2-(3-chloro-4-cyanophenyl)-3-methyl-2,8-diazaspiro[4.5]decan-8-yl)benzoyl)piperidin-4-yl)methyl)-N-((S)-2,6-dioxohesperidin-3-yl)-6-methoxy-2H-spiro[benzofuran-3,4'-piperidin]-5-carboxamide], for which, in assay [4] (10 nM), the percent AR protein degradation at a fixed concentration at 0.01 µM came to 55%. In assay [4] (100 nM), the percent AR protein degradation at a fixed concentration at 0.1 µM came to 83%. Also, the IC50 was found to be 15.7 µM in assay [2] and 0.049 µM in assay [3].

Values taken from patent EP4722219A1 (Gan & Lee Pharmaceuticals Co., Ltd., priority 2023, dated 2024).
